In patent publication US6656911B2, “Serine protease inhibitors” (Cortech, Inc., priority 1994, dated 2003):

Assays:
[1] = Blood level screening after oral dose; type: in vivo, Sprague-Dawley rats; settings: rat, oral gavage 10 mg/kg; for concentration at 3 h: read-out: Plasma Levels (μM) 3 hr; for concentration at 1 h: read-out: Plasma Levels (μM) 1 hr
Procedure: The inhibitors were dissolved or suspended in polyethylene glycol (PEG), PEG-400 or PEG:H2O:EtOH at a concentration of 10 mg/ml. Unfasted male Sprague-Dawley rats were given an oral dose of this solution by gavage. Rats received 10 mg inhibitor/kg body weight in a volume of 1 ml/kg. After 1,3 or 6 hr., the rats were killed with an overdose of urethane (2.5 g/kg; i.p.) and the blood collected in a heparinized tube via cardiac puncture. Red blood cells were separated from the plasma by centrifugation.
Depending on the inhibitor, one of four organics (ethyl acetate, toluene, isopropyl ether or methyl t-butyl ether) was used to extract the compound from the plasma. Inhibitor concentrations were measured by HPLC or LC/MS analysis.

[2] = target: T1, human neutrophil elastase (HNE) (Homo sapiens, UniProt P08246); test: HNE Ki of CE compounds, tested as described in WO 96/16080; type: biochemical; settings: read-out: HNE Ki
T1 sequence (P08246 30-267): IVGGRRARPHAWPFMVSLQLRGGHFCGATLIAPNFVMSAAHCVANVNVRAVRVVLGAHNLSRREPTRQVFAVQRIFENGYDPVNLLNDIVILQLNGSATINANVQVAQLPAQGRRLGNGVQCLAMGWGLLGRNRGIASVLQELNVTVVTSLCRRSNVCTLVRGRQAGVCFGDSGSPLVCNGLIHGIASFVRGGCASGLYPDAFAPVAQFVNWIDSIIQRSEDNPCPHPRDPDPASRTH

Molecule	Plasma Levels (μM) 3 hr [1] [µM]	Ki [2] [nM]	concentration at 3 h ([1]; male, Sprague-Dawley, plasma) [µM]	Plasma Levels (μM) 1 hr [1] [µM]	Plasma Levels (μM) 6 hr ([1]; 6 hr) [µM]	concentration at 1 h ([1]; male, Sprague-Dawley, plasma) [µM]	concentration at 6 h ([1]; male, Sprague-Dawley, plasma, 6 hr, read-out: Plasma Levels (μM) 6 hr) [µM]
CC(C)[C@H](NC(=O)CN1C(=O)NC(c2ccncc2)(N2C(=O)CCC2=O)C1=O)C(=O)c1noc(Cc2cccc(C(F)(F)F)c2)n1 (stereo partly drawn) [CE2209, [4-(R,S)-(4-pyridyl)-4-(R,S)-N-succinimidyl]-2,5-imidazolidinedione-N-[1-(3-[5-(3-trifluoromethylbenzyl)-1,2,4-oxadiazolyl]carbonyl)-2-(S)-methylpropyl]acetamide]	0	36.4					
CC(=O)N1CC(=O)N(CC(=O)N[C@H](C(=O)c2nnc(Cc3cccc(C)c3)o2)C(C)C)C(=Cc2ccccc2)C1=O [CE2099, 1-Acetyl-3-benzylidene piperazine-2,5-dione-N-[1-(2-[5-(3-methylbenzyl)-1,3,4-oxadiazolyl]carbonyl)-2-(S)-methylpropyl]acetamide]		1.9	0.042				
Cc1cccc(Cc2nnc(C(=O)[C@@H](NC(=O)CN3C(=O)NC4(CCCC4)C3=O)C(C)C)o2)c1 [CE2231, 4-Spirocyclopentane-2,5-imidazolidinedione-N-[1-(2-[5-(3-methylbenzyl)-1,3,4-oxadiazolyl]carbonyl)-2-(S)-methylpropyl]acetamide]	0.787	16		1.226	0.531		
Cc1cccc(Cc2nnc(C(=O)[C@@H](NC(=O)Cn3c(=O)ncc4ccccc43)C(C)C)o2)c1 [CE2215, 1,4-Quinazolin-2-one-N-[1-(2-[5-(3-methylbenzyl)-1,3,4-oxadiazolyl]carbonyl)-2-(S)-methylpropyl]acetamide]	0.83	163		1.16	0.63		
CC(=O)N1CC(=O)N(CC(=O)N[C@H](C(=O)c2nnc(Cc3cccc(C)c3)o2)C(C)C)C(=Cc2ccc(N(C)C)cc2)C1=O [CE2111, 1-Acetyl-3-(4-dimethylaminobenzylidene) piperazine-2,5-dione-N-[1-(2-[5-(3-methylbenzyl)-1,3,4-oxadiazolyl]carbonyl)-2-(S)-methylpropyl]acetamide]		20	0.69				
Cc1cccc(Cc2nnc(C(=O)[C@@H](NC(=O)CN3C(=O)N[C@@H](CC(C)C)C3=O)C(C)C)o2)c1 [CE2227, 4-(S)-(2-Isobutyl)-2,5-imidazolidinedione-N-[1-(2-[5-(3-methylbenzyl)-1,3,4-oxadiazolyl]carbonyl)-2-(S)-methylpropyl]acetamide]	0.74	40		1.276	0.962		
Cc1cccc(Cc2nnc(C(=O)[C@@H](NC(=O)CN3C(=O)CN(CCN4CCOCC4)C(=O)[C@H]3Cc3ccccc3)C(C)C)o2)c1 [CE2162, 4-[1-(2-N-Morpholino)ethyl-3-(R)-benzylpiperazine-2,5-dione]-N-[1-(2-[5-(3-methylbenzyl)-1,3,4-oxadiazolyl]carbonyl)-2-(S)-methylpropyl]acetamide]		10.6	0.025				
BTD-[1-(2-[5-(3-methylbenzyl)-1,3,4-oxadiazolyl]carbonyl)-2-(S)-methylpropyl]amide [CE2126]	0.161	5					
Cc1cccc(Cc2nnc(C(=O)C(NC(=O)CN3C(=O)CCc4ccccc43)C(C)C)o2)c1 (stereo not drawn) [CE2088, 3,4-Dihydro-quinoline-2-one-N-[1-(2-[5-(3-methylbenzyl)-1,3,4-oxadiazolyl]carbonyl)-2-N-methylpropyl]acetamide]		66	0.755			0.801	
CC(C)[C@H](NC(=O)[C@@H]1CCCN1C(=O)[C@@H](NS(C)(=O)=O)C(C)C)C(=O)c1noc(Cc2cccc(C(F)(F)F)c2)n1 [CE2172, Methylsulfonyl-L-valyl-N-[1-(3-[5-(3-trifluoromethylbenzyl)-1,2,4-oxadiazolyl]carbonyl)-2-(S)-methylpropyl]-L-prolinamide]		2.2	0.021				
Cc1cccc(Cc2nnc(C(=O)[C@@H](NC(=O)CN(Cc3ccccc3)C(=O)c3ccc[nH]3)C(C)C)o2)c1 [CE2164, (Pyrrole-2-carbonyl)-N-(benzyl)glycyl-N-[1-(2-[5-(3-methylbenzyl)-1,3,4-oxadiazolyl]carbonyl)-2-(S)-methylpropyl]amide]		17	0.034				
CCc1cccc(Cc2nnc(C(=O)[C@@H](NC(=O)CN3C(=O)NC(=Cc4cccnc4)C3=O)C(C)C)o2)c1 [CE2205, [4-(R)-(3-pyridylmethylene)]-2,5-imidazolidinedione-N-[1-(2-[5-(3-ethylbenzyl)-1,3,4-oxadiazolyl]carbonyl)-2-(S)-methylpropyl]acetamide]	0.475	37					
COC(=O)N[C@H](C(=O)N1CCC[C@H]1C(=O)N[C@H](C(=O)c1nnc(Cc2cccc(C)c2)o1)C(C)C)C(C)C [CE2213, Methyloxycarbonyl-L-valyl-N-[1-(2-[5-(3-methylbenzyl)-1,3,4-oxadiazolyl]carbonyl)-2-(S)-methylpropyl]-L-prolinamide]		0.14	0.19				
CC(C)[C@H](NC(=O)CN1C(=O)NC(=Cc2cccnc2)C1=O)C(=O)c1noc(Cc2cccc(C(F)(F)F)c2)n1 [CE2203, [4-(R)-(3-pyridylmethylene)]-2,5-imidazolidinedione-N-[1-(3-[5-(3-trifluoromethylbenzyl)-1,2,4-oxadiazolyl]carbonyl)-2-(S)-methylpropyl]acetamide]	0.004	79					
Cc1cccc(Cc2nnc(C(=O)C(NC(=O)Cn3c(=O)c(N)cc4ccccc43)C(C)C)o2)c1 (racemic) [CE2228, 3-(R,S)-Amino-quinolin-2-one-N-[1-(2-[5-(3-methylbenzyl)-1,3,4-oxadiazolyl]carbonyl)-2-(R,S)-methylpropyl]acetamide]	1.393	40		0.714	0.409		
CC(=O)N1c2ccccc2C[C@H]1C(=O)N[C@H](C(=O)c1nnc(Cc2cccc(C)c2)o1)C(C)C [CE2165, N-Acetyl-2-(L)-(2,3-dihydro-1H-indole)-N-[1-(2-[5-(3-methylbenzyl) 1,3,4-oxadiazolyl]carbonyl)-2-(S)-methylpropyl]amide]		2.6	0.067				
Cc1cccc(Cc2nnc(C(=O)[C@@H](NC(=O)CN(C(=O)[C@@H](NC(=O)OCc3ccccc3)C(C)C)c3ccccc3)C(C)C)o2)c1 [CE2232, Benzyloxycarbonyl-L-valyl-N-(phenyl)glycyl-N-[1-(2-[5-(3-methylbenzyl)-1,3,4-oxadiazolyl]carbonyl)-2-(S)-methylpropyl]amide]		0.15	0.44			0.44	0.26
Cc1cccc(Cc2nnc(C(=O)[C@@H](NC(=O)CN3C[C@@H](c4ccccc4)N(C(=O)OCc4ccccc4)CC3=O)C(C)C)o2)c1 [CE2204, 1-Benzyloxycarbonyl-(2-(R)-phenylpiperazin-5-one)-N-[-(2-[5-(3-methylbenzyl)-1,3,4-oxadiazolyl]carbonyl)-2-(S)-methylpropyl]acetamide]		7.4	0.48				
CC(C)OC(=O)N[C@H](C(=O)N1CCC[C@H]1C(=O)N[C@H](C(=O)c1noc(Cc2cccc(C(F)(F)F)c2)n1)C(C)C)C(C)C [CE2207, Isopropytoxycarbonyl-L-valyl-N-[1-(3-[5-(3-trifluoromethylbenzyl)-1,2,4-oxadiazolyl]carbonyl)-2-(S)-methylpropyl]-L-prolinamide]		1.2	0				
Cc1cccc(Cc2nnc(C(=O)[C@@H](NC(=O)Cn3c(=O)c(N)cc4ccccc43)C(C)C)o2)c1 [CE2113, 3-(Amino-quinoline-2-one)-N[1-(2-[5-(3-methylbenzyl)-1,3,4-oxadiazolyl]carbonyl)-2-(S)-methylpropyl]acetamide]		39	0.909			1.83	
CC(C)[C@H](NC(=O)CN1C(=O)N[C@H](Cc2ccccc2)C1=O)C(=O)c1noc(Cc2cccc(C(F)(F)F)c2)n1 [CE2141, 5-(R)-Benzyl-2,4-imidazolidinedione-N-[1-(3-[5-(3-trifluoromethylbenzyl)-1,2,4-oxadiazolyl]carbonyl)-2-(S)-methylpropyl]acetamide]	0.005	64					
